Results on 15 compounds are retold here after patent publication US12391698B2, “Substituted piperidines and piperazines and methods for the treatment of CNS disorders” (SUVEN LIFE SCIENCES LIMITED, priority 2022, dated 2025).

What is called Ki is the dissociation constant of the complex between target and ligand, obtained from inhibition or displacement.

Assay [1] concerns the target T1, cloned human 5-HT1A receptor (Homo sapiens, UniProt P08908).
T1 construct: expressed in transfected cells; host or cells: HEK293-EBNA
T1 sequence (P08908 1-422): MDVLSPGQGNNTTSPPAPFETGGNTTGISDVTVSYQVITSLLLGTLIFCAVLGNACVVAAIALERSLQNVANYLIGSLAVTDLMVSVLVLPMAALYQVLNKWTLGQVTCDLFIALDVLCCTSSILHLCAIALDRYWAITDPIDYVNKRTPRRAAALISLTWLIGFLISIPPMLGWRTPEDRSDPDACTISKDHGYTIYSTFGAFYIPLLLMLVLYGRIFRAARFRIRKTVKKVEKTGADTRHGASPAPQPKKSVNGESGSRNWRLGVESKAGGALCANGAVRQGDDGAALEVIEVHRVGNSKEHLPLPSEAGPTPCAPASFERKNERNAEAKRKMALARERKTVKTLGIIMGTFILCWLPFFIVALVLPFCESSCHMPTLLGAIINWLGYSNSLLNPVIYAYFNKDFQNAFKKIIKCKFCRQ
Kind of assay: Determination of Ki at 5-HT1A receptor (radioligand binding, [3H]-8-Hydroxy DPAT). As to conditions: HEK293-EBNA recombinant cells; [3H]-8-Hydroxy DPAT 0.8 nM; read-out: Ki h5-HT1A. On the procedure:
(§1) Compounds were tested according to the following procedure.
• Receptor source: Recombinant mammalian cells (HEK293-EBNA) • Radioligand: [^3H]-8-Hydroxy DPAT (200 Ci/mmol) • Final ligand concentration: 0.8 nM • Non-specific determinant: 0.1 mM U92016A • Reference compound: U92016A • Positive control: U92016A Incubation Conditions:
Reactions were carried out in buffer with pH 7.4 containing 50 mM Tris-HCl, 0.5 mM EDTA, 10 mM MgSO4, 0.1% Ascorbic acid for 2 h at r.t. The reaction was terminated by rapid vacuum filtration onto the glass fiber filters. Radioactivity trapped onto the filters was determined and compared to the control values in order to ascertain any interactions of the test compound(s) with cloned human 5-HT1A receptor binding site.

Assay [2] addresses T2, cloned human 5-HT2A receptor (Homo sapiens, UniProt P28223).
T2 construct: expressed in transfected cells; host or cells: CHO-K1
Kind of assay: Determination of Ki at 5-HT2A receptor (radioligand binding, [3H]-Ketanserine). As to conditions: CHO-K1 recombinant cells; [3H]-Ketanserine 1.25 nM; read-out: Ki h5-HT2A. On the procedure:
as §1
• Receptor source: Recombinant mammalian cells (CHO-K1) • Radioligand: [^3H]-Ketanserine (41.9 Ci/mmol) • Final ligand concentration: 1.25 nM • Non-specific determinant: 0.1 mM 1-Napthyl piperazine (1-NP) • Reference compound: 1-Napthyl piperazine (1-NP) • Positive control: 1-Napthyl piperazine (1-NP) Incubation Conditions:
Reactions were carried out in buffer with pH 7.4 containing 50 mM Tris-HCl, 4 mM CaCl2), 0.1% Ascorbic acid for 1 h at r.t. The reaction was terminated by rapid vacuum filtration onto the glass fiber filters. Radioactivity trapped onto the filters was determined and compared to the control values in order to ascertain any interactions of the test compound(s) with cloned human 5-HT2A receptor binding site.

For assay [3], the target named is cloned human SERT receptor (Homo sapiens, UniProt P31645). Kind of assay: Determination of Ki at SERT receptor (SPA binding, [3H]-Citalopram). As to conditions: HEK293 recombinant cells, [3H]-Citalopram 2 nM, read-out: Ki hSERT. On the procedure:
as §1
• Receptor source: Recombinant mammalian cells (HEK293) • Radioligand: [^3H]-Citalopram (80.8 Ci/mmol) • Final ligand concentration: 2 nM • Non-specific determinant: 0.1 mM Venlafaxine • Reference compound: Venlafaxine • Positive control: Venlafaxine Incubation Conditions:
Reactions were carried out in buffer with pH 7.4 containing 50 mM Tris-HCl, 150 mM NaCl, 5 mM KCl and scintillation proximity assay (SPA) beads (0.1 mg/well) for 3 h at r.t. Radioactivity proximal to SPA beads was determined by scintillation proximity assay and compared to the control values in order to ascertain any interactions of the test compound(s) with cloned human SERT receptor binding site.
Reference: Journal of Pharmacology and Experimental Therapeutics, 1987, 242 (1), 364-371.

The target in assay [4] is T3, hD2S (cloned human dopamine D2S receptor) (Homo sapiens, UniProt P14416).
T3 construct: expressed in transfected cells; host or cells: CHO-K1
Kind of assay: Determination of Ki at D2S receptor (radioligand binding, [3H]-Raclopride). The note with it: CHO-K1 recombinant cells; [3H]-Raclopride 4 nM; read-out: Ki hD2S. As to the method: as §1
• Receptor source: Recombinant mammalian cells (CHO-K1) • Radioligand: [^3H]-Raclopride (80.8 Ci/mmol) • Final ligand concentration: 4 nM • Non-specific determinant: 0.1 mM Haloperidol • Reference compound: Haloperidol • Positive control: Haloperidol Incubation Conditions:
Reactions were carried out in buffer with pH 7.4 containing 50 mM Tris-HCl, 120 mM NaCl, 5 mM KCl, 5 mM MgCl2, 1 mM EDTA for 2 h at r.t. The reaction was terminated by rapid vacuum filtration onto the glass fiber filters. Radioactivity trapped onto the filters was determined and compared to the control values in order to ascertain any interactions of the test compound(s) with cloned human dopamine […] receptor binding site.

Where a name gives a salt, the structure may show the parent alone. Read-outs that look alike come from different tables or passages of the source.

Sequence of cloned human SERT receptor (P31645 whole entry): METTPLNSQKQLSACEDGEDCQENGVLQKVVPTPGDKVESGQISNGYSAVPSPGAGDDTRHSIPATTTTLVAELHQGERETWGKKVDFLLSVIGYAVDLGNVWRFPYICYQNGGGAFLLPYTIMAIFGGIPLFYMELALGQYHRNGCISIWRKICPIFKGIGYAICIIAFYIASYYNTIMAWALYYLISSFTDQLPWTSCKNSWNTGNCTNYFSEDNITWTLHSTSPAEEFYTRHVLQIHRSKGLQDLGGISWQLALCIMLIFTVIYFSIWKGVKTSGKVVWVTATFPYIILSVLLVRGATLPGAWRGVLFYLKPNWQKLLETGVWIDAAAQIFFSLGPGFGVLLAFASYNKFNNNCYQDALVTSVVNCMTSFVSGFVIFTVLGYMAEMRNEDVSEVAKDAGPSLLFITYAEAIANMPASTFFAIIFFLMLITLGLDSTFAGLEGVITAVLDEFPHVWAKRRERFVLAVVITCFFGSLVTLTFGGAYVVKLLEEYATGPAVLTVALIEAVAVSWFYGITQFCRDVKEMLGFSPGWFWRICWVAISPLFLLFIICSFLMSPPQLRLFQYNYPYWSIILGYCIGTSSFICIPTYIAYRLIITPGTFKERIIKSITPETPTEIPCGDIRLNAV
T2 sequence (P28223 whole entry): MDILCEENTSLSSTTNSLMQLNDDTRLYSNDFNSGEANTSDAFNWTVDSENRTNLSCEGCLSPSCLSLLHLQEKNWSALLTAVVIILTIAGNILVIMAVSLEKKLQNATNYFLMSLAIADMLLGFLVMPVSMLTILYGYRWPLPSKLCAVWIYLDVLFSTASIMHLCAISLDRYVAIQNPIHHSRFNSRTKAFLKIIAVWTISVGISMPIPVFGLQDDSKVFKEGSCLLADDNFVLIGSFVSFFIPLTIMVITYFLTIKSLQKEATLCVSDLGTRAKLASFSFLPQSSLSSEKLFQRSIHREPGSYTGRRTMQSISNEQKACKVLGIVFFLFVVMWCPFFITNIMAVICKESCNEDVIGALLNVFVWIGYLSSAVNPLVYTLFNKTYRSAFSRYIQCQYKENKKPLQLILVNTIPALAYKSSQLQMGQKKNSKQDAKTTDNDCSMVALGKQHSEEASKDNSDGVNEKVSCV
T3 sequence (P14416 1-414 isoform P14416-2): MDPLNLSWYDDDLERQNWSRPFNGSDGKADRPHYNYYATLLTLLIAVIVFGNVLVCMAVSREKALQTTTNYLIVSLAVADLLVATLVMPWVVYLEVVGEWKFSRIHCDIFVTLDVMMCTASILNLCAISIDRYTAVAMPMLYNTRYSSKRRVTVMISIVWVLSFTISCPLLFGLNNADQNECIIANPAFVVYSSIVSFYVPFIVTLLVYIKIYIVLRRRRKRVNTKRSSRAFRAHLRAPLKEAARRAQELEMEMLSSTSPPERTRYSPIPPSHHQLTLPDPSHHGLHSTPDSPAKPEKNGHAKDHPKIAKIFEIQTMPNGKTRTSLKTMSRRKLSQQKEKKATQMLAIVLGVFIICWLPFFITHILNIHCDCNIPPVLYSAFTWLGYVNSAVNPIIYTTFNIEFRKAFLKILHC

Take `O=C1C[C@@H]2CCCN2C(=O)N1CCCCN1CCC(c2c[nH]c3ccc(F)cc23)CC1` [Example 7, 2-{4-[4-(5-Fluoro-1H-indol-3-yl)-piperidin-1-yl]-butyl}-tetrahydro-pyrrolo[1,2-c]pyrimidine-1,3-dione oxalate]: the Ki stood at 1.8 nM in assay [1], 49.9 nM in assay [2], 0.0385 µM in assay [3] and 4.5 nM in assay [4].
For `O=C1C[C@@H]2CCCCN2C(=O)N1CCCCN1CCN(c2nsc3ccccc23)CC1` [Example 12, 2-[4-(4-Benzo[d]isothiazol-3-yl-piperazin-1-yl)-butyl]-hexahydro-pyrido[1,2-c]pyrimidine-1,3-dione], in that order: 0.1 nM, 0.6 nM, 0.181 µM and 0.6 nM.
In the case of `O=C1C[C@@H]2CCCCN2C(=O)N1CCCCN1CCC(c2noc3cc(F)ccc23)CC1` [Example 13, 2-{4-[4-(6-Fluoro-benzo[d]isoxazol-3-yl)-piperidin-1-yl]-butyl}-hexahydro-pyrido[1,2-c]pyrimidine-1,3-dione], the Ki in assay [1] stood at 14.9 nM; in assay [2] it was 2.5 nM; in assay [3] it was 1.63 µM; in assay [4], 2.5 nM.
Turning to `O=C1C[C@@H]2CCCCN2C(=O)N1CCCCN1CCC(c2c[nH]c3ccc(F)cc23)CC1` [Example 15, 2-{4-[4-(5-Fluoro-1H-indol-3-yl)-piperidin-1-yl]-butyl}-hexahydro-pyrido[1,2-c]pyrimidine-1,3-dione], the Ki amounted to 2.2 nM in assay [1], 53.6 nM in assay [2], 0.0269 µM in assay [3] and 2.9 nM in assay [4].
As to `COc1ccc2[nH]cc(C3CCN(CCCCN4C(=O)C[C@@H]5CCCCN5C4=O)CC3)c2c1` [Example 16, 2-{4-[4-(5-Methoxy-1H-indol-3-yl)-piperidin-1-yl]-butyl}-hexahydro-pyrido[1,2-c]pyrimidine-1,3-dione], the Ki in assay [1] was 0.6 nM; in assay [2], 1210 nM; in assay [3] it was 0.427 µM; in assay [4] it was 59.1 nM.
As for `O=C(OCc1ccccc1)N1CCN2C(=O)N(CCCCN3CCN(c4nsc5ccccc45)CC3)C(=O)C[C@@H]2C1` [Example 19, 7-[4-(4-Benzo[d]isothiazol-3-yl-piperazin-1-yl)-butyl]-6,8-dioxo-octahydro-pyrazino[1,2-c]pyrimidine-2-carboxylic acid benzyl ester], the Ki in assay [1] is 1.1 nM; in assay [2], 0.8 nM; in assay [3], 0.126 µM; in assay [4] it was 3.2 nM.
As to `O=C(OCc1ccccc1)N1CCN2C(=O)N(CCCCN3CCN(c4nsc5ccccc45)CC3)C(=O)C[C@@H]2C1` [Example 20, 7-[4-(4-Benzo[d]isothiazol-3-yl-piperazin-1-yl)-butyl]-6,8-dioxo-octahydro-pyrazino[1,2-c]pyrimidine-2-carboxylic acid benzyl ester fumarate], the Ki in assay [1] turned out to be 1.3 nM; in assay [2] it was 1.1 nM; in assay [3] it was 0.148 µM; in assay [4], 2.7 nM.
As to `O=C(OCc1ccccc1)N1CCN2C(=O)N(CCCCN3CCC(c4noc5cc(F)ccc45)CC3)C(=O)CC2C1` (stereo not shown) [Example 22, 7-{4-[4-(6-Fluoro-benzo[d]isoxazol-3-yl)-piperidin-1-yl]-butyl}-6,8-dioxo-octahydro-pyrazino[1,2-c]pyrimidine-2-carboxylic acid benzyl ester fumarate], the Ki in assay [1] came to 84.1 nM; in assay [2], 1.5 nM; in assay [3], 0.279 µM; in assay [4] it was 2.5 nM.
`O=C1C[C@@H]2CCCN2C(=O)N1CCCN1CCN(c2nsc3ccccc23)CC1` [Example 23, 2-[3-(4-benzo[d]isothiazol-3-yl-piperazin-1-yl)-propyl]tetrahydro-pyrrolo[1,2-c]pyrimidine-1,3-dione]: the Ki in assay [1] came out at 21.4 nM; in assay [2], 5.3 nM; in assay [3], 0.918 µM; in assay [4], 22.3 nM.
As to `O=C1C[C@@H]2CCCN2C(=O)N1CCCN1CCC(c2noc3cc(F)ccc23)CC1` [Example 24, 2-{3-[4-(6-Fluoro-benzo[d]isoxazol-3-yl)-piperidin-1-yl]-propyl}-tetrahydro-pyrrolo[1,2-c]pyrimidine-1,3-dione], the Ki was 1690 nM in assay [1], 7.1 nM in assay [2], above 10 µM in assay [3] (cells printed in μM) and 103 nM in assay [4].
Turning to `O=C1C[C@@H]2CCCN2C(=O)N1CCCN1CCC(c2c[nH]c3ccc(F)cc23)CC1` [Example 25, 2-{3-[4-(5-Fluoro-1H-indol-3-yl)-piperidin-1-yl]-propyl}-tetrahydro-pyrrolo[1,2-c]pyrimidine-1,3-dione], the Ki in assay [1] amounted to 58.6 nM; in assay [2], 195 nM; in assay [3], 0.298 µM; in assay [4] it was 23.8 nM.
On to `O=C1C[C@H]2COCCN2C(=O)N1C[C@H]1CCCC[C@H]1CN1CCN(c2nsc3ccccc23)CC1` [Example 30, 7-[2-(4-Benzo[d]isothiazol-3-yl-piperazin-1-ylmethyl)-cyclohexylmethyl]-tetrahydro-pyrimido[6,1-c][1,4]oxazine-6,8-dione], for which the figures for the Ki in assay [2], in assay [3] and in assay [4] were 8.5 nM, 9.35 µM and 0.6 nM, respectively.
As to `COC(=O)N1CCN2C(=O)N(CCCCN3CCN(c4nsc5ccccc45)CC3)C(=O)C[C@@H]2C1` [Example 33, 7-[4-(4-Benzo[d]isothiazol-3-yl-piperazin-1-yl)-butyl]-6,8-dioxo-octahydro-pyrazino[1,2-c]pyrimidine-2-carboxylic acid methyl ester], the Ki in assay [1] amounted to 0.3 nM; in assay [2] it was 0.8 nM; in assay [3], 0.0611 µM; in assay [4], 1.7 nM.
Take `COC(=O)N1CCN2C(=O)N(CCCCN3CCN(c4nsc5ccccc45)CC3)C(=O)CC2C1` (stereo not shown) [Example 34, 7-[4-(4-Benzo[d]isothiazol-3-yl-piperazin-1-yl)-butyl]-6,8-dioxo-octahydro-pyrazino[1,2-c]pyrimidine-2-carboxylic acid methyl ester fumarate]: the inhibitory constant (Ki) in assay [1] is 1.3 nM; in assay [2] it was 0.5 nM; in assay [3] it was 0.152 µM; in assay [4], 2.4 nM.
As to `CC(=O)N1CCN2C(=O)N(CCCCN3CCN(c4nsc5ccccc45)CC3)C(=O)C[C@@H]2C1` [Example 38, 2-Acetyl-7-[4-(4-benzo[d]isothiazol-3-yl-piperazin-1-yl)-butyl]-hexahydro-pyrazino[1,2-c]pyrimidine-6,8-dione fumarate], the Ki was 2.2 nM in assay [2], 0.953 µM in assay [3] and 4.5 nM in assay [4].
